Columns and labels:
[1] = tested on: SK-MEL-2 cells; test: Cell growth inhibition (Cell Titer Glo), SK-MEL-2; assay type: cell-based; details: Homo sapiens, SK-MEL-2, 72 h; wild-type B-RAF cell line, 3 days
Method: Compounds are assessed in a variety of cell based assays, employing cells with or without B-Raf V600E mutation, for example cell lines with B-Raf V600E mutation (A375 and COLO205), as well as tumorigenic cell lines with wild-type B-RAF (SW620 and SK-MEL-2). Reagent and assay conditions are as follows:
SK-MEL-2 cells growth medium: • Minimum Eagle essential medium, 2 mM L-glutamine, 1.5 g/L sodium bicarbonate, 0.1 mM non-essential amino acids, 1.0 mM sodium pyruvate, 10% fetal bovine serum. • On day 1, cells are seeded in growth media in 200 μL per well in a 96-well polystyrene tissue culture plate at 2,000 cells per well (A375, COLO205, SK-MEL-2) or 5,000 cells per well for SW620, and incubated at 37° C. and 5% CO2 overnight. • On day 2, compound at 4 mM in dimethyl sulfoxide is serially diluted 1:4 (10 μL with 30 μL dimethyl sulfoxide) seven times for a total of 8 concentration points. For each dilution point a 1 μL aliquot is added to a well containing cells (highest dilution point at 20 μM), with 1 μL of dimethyl sulfoxide as a negative control (each sample at 0.5% dimethyl sulfoxide). The cells are incubated for 3 days at 37° C. in 5% CO2. • On day 5, Cell Titer Glo (Promega) is thawed and added 100 μL to each well and the plate shaken for 1-2 minutes. The plates are incubated for 10 minutes at room temperature, then […] signal is read (e.g. on Safire reader). The measured fluoresence correlates directly with cell number, such that the reading as a function of compound concentration is used to determine the IC50 value.

[2] = target: Hgk (Homo sapiens, UniProt O95819); test: Biochemical inhibitory activity, other protein kinases: Hgk; details: for Kinase having IC50 of >1 μM: listing of the kinase means IC50 >1 μM; for Kinase having IC50 of <1 μM: listing of the kinase means IC50 <1 μM
[3] = target: Fms (Homo sapiens, UniProt P07333); test: Biochemical inhibitory activity, other protein kinases: Fms; details: listing of the kinase means IC50 >1 μM
[4] = target: T1, CYP2C19 (Homo sapiens, UniProt P33261); test: CYP inhibition (fluorescent substrate), CYP2C19; assay type: in vitro ADME; details: substrate CEC; read-out: Cyp IC50 (μM) 2C19
T1 construct: purchased BD Biosciences
Method: (§1) CYP (Cytochrome P450) enzymes are the major drug metabolizing enzymes present in the liver. The inhibition of CYP enzyme activity (IC50) for each of CYP1A2, CYP2C19, CYP2C9, CYP2D6, CYP3A4(BFC) and CYP3A4(BQ) is determined for compounds, where inhibition of metabolism of a known substrate leads to a decrease in the fluorescence of the metabolized product. The fluorescence of the product is monitored as a function of compound concentration. Compounds are dissolved in dimethyl sulfoxide to a concentration of 100 mM. These are diluted 1 μL into 82 μL of acetonitrile. An 11 μL aliquot of this solution is then added to 204 μL of cofactor mix (1.3% NADPH Regeneration system Solution A, 1.04% NADPH Regeneration system Solution B from BD Biosciences, 5% acetonitrile and 0.05% dimethyl sulfoxide). These are then serially diluted 1:1 (160 μL to 160 μL co-factor mix) for a total of 10 points. A 10 μL aliquot of this final mixture is dispensed into 384 well assay plates and incubated for 10 minutes at 37° C. […] Assay plates are incubated at 37° C. (CYP1A2-15 min; CYP2C9-45 min; CYP2C19, 2D6 and 3A4-30 min) and read in a Tecan Safire 2 plate reader (CYP1A2, 2C19 and 3A4 409 ex/460 em; CYP2C9 and 2D6 409 ex/530 em). The signal versus compound concentration is used to determine the IC50. The enzymes and substrates for this assay are obtained from BD Biosciences.

[5] = target: T2, CYP2D6 (Homo sapiens, UniProt P10635); test: CYP inhibition (fluorescent substrate), CYP2D6; assay type: in vitro ADME; details: substrate AMMC; read-out: Cyp IC50 (μM) 2D6
T2 construct: purchased BD Biosciences
Method: as §1

[6] = tested on: Raf kinases; test: Biochemical assay, Raf kinases as well as other kinases
Method: Assays for biochemical and cell based activity are known in the art, for example, as described in PCT publication WO 2007/002433, the disclosure of which is hereby incorporated by reference as it relates to such assays. For example, the biochemical activity IC50 values are determined with respect to inhibition of A-Raf kinase activity, B-Raf kinase activity, c-Raf-1 kinase activity, or B-Raf V600E kinase activity, where inhibition of phosphorylation of a peptide substrate is measured as a function of compound concentration. Compounds to be tested are diluted in dimethyl sulfoxide to a concentration of 0.1 mM. These are serially diluted 15 μL into 30 μL of dimethyl sulfoxide seven times in 96 well plates for a total of 8 dilution points, and for each dilution point 1 μL is added to a well of an assay plate. Plates are prepared such that each well in a 384 well plate contains 1 μL of compound in 10 μL volume with 0.1 ng Raf enzyme (i.e. any of A-Raf, B-Raf, c-Raf-1 or B-Raf V600E, Upstate Biotechnology or prepared by methods known to one of skill in the art), 50 mM HEPES, pH 7.0, 50 mM NaCl, 2 mM MgCl2, 1 mM MnCl2, 0.01% Tween-20, 1 mM DTT, and 100 nM biotin-MEK1 as substrate. The reaction is started with addition of 10 μL of 200 μM ATP (i.e. final 100 μM ATP). After incubation of the kinase reaction for 45 minutes at room temperature, 5 μL/well of Stop Solution is added (25 mM Hepes pH 7.5, 100 mM EDTA, 0.01% BSA with donor beads (Streptavidin coated beads, Perkin Elmer), acceptor beads (Protein A coated, Perkin Elmer), and anti phosphor MEK1/2 antibody (CellSignal), each at final concentration 10 μg/mL). The plates are incubated for 3 hours at room temperature and read on Envision reader (Perkin Elmer). Phosphorylation of Mek1 results in binding of the anti-phosphor-MEK1/2 antibody and association of the donor and acceptor beads such that signal correlates with kinase activity. The signal vs. compound concentration is used to determine the IC50.

T1 sequence (P33261 whole entry): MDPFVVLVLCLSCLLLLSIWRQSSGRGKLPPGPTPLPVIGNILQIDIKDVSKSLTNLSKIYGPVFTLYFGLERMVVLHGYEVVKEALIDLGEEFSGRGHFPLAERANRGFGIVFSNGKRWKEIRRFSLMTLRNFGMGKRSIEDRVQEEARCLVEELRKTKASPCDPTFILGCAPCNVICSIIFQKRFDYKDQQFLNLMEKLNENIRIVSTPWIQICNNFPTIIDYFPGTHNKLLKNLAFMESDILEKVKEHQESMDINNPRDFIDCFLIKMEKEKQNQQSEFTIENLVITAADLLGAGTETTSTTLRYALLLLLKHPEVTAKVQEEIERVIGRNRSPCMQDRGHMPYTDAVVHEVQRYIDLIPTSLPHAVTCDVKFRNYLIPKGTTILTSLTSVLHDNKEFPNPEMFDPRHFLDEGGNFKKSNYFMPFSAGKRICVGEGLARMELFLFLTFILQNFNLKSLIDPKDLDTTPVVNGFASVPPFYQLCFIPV
T2 sequence (P10635 whole entry): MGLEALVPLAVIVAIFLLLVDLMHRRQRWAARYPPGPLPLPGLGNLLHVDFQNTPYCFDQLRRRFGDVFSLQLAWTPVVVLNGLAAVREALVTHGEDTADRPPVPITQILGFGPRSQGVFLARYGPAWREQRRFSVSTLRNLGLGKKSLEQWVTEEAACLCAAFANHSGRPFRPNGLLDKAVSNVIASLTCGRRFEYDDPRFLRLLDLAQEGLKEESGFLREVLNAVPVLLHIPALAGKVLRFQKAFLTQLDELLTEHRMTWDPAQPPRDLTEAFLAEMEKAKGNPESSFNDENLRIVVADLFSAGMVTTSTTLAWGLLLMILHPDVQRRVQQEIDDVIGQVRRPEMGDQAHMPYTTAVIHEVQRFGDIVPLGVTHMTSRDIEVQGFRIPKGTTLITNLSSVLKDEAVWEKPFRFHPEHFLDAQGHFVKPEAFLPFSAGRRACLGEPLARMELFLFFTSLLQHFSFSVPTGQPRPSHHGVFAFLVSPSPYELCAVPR
Sequence of Hgk (O95819 whole entry, species assumed): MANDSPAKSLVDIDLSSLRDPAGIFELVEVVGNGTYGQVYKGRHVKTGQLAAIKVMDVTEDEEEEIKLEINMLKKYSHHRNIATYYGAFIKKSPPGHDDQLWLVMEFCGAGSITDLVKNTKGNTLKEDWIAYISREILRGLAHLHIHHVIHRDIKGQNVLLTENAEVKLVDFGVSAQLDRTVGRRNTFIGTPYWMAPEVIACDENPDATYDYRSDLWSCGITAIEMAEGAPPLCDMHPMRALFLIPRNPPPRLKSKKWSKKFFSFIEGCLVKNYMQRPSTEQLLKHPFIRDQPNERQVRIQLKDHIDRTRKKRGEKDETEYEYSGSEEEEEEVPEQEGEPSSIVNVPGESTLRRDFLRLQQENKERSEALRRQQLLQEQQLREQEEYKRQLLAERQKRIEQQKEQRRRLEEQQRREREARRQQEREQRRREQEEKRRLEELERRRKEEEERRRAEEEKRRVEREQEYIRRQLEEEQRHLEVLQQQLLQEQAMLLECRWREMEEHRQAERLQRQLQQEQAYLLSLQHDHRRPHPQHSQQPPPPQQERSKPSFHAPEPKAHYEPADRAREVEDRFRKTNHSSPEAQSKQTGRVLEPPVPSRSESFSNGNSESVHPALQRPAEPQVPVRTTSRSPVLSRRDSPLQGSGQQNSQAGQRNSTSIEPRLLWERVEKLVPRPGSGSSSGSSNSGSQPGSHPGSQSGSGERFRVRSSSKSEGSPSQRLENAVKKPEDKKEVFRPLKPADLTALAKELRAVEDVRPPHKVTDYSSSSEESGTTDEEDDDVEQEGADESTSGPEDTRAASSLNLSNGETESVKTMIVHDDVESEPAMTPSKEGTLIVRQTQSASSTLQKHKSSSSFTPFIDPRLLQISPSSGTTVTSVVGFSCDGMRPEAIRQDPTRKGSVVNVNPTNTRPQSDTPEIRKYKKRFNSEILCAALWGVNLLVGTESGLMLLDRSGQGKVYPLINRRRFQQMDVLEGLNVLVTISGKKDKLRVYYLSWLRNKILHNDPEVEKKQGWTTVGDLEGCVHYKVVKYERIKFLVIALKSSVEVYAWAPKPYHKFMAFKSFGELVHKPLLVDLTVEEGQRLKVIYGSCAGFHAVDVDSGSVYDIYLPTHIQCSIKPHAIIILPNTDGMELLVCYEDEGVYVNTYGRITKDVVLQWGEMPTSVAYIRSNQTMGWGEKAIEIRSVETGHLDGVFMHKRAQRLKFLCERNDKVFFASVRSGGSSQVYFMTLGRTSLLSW
Sequence of Fms (P07333 20-972, species assumed): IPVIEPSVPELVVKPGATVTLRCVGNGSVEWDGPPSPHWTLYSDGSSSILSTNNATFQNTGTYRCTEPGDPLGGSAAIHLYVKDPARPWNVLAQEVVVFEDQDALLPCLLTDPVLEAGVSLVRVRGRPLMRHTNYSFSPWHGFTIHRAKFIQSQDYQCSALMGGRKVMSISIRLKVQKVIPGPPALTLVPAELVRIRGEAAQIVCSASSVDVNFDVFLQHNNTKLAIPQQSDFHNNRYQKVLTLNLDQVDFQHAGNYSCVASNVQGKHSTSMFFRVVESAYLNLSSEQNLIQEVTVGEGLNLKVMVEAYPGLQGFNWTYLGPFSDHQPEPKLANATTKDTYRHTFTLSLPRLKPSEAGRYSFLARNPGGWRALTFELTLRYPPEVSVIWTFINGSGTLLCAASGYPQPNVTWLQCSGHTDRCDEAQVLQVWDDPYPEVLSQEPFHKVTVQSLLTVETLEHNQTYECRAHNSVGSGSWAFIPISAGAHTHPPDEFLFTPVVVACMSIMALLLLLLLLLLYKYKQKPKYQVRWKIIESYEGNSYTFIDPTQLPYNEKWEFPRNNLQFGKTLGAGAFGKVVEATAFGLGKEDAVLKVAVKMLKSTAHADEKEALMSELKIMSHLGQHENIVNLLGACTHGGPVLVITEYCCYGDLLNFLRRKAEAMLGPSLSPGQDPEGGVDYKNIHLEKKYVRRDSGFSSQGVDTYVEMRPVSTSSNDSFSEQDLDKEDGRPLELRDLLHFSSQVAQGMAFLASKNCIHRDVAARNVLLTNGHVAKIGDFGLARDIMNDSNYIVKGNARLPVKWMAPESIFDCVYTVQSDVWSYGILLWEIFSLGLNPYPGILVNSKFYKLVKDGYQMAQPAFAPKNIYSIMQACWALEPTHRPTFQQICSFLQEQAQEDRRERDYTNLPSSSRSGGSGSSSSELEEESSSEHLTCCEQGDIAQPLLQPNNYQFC

Structure (SMILES)	IC50 [1] [µM]	Kinase having IC50 of >1 μM [2]	Kinase having IC50 of >1 μM [3]	IC50 [4] [µM]	IC50 [5] [µM]	Selectivity of inhibitory activity, Raf kinases versus other kinases [6]	Kinase having IC50 of <1 μM [2]
CCCS(=O)(=O)Nc1ccc(F)c(C(=O)c2c[nH]c3ncc(-c4cnc(OC)nc4)cc23)c1F [Compound P-0001, propane-1-sulfonic acid {2,4-difluoro-3-[5-(2-methoxy-pyrimidin-5-yl)-1H-pyrrolo[2,3-b]pyridine-3-carbonyl]-phenyl}-amide]	> 5	Hgk	Fms	> 10	> 10	selective activity to the Raf kinases	–
CCCS(=O)(=O)Nc1ccc(F)c(C(=O)c2c[nH]c3ncc(C#N)cc23)c1F [Compound P-0002, propane-1-sulfonic acid [3-(5-cyano-1H-pyrrolo[2,3-b]pyridine-3-carbonyl)-2,4-difluoro-phenyl]-amide]	> 20	Hgk	Fms	5 to 10	> 10	selective activity to the Raf kinases	–
CCCS(=O)(=O)Nc1cccc(C(=O)c2c[nH]c3ncc(C#N)cc23)c1F [Compound P-0003, propane-1-sulfonic acid [3-(5-cyano-1H-pyrrolo[2,3-b]pyridine-3-carbonyl)-2-fluoro-phenyl]-amide]	> 20	Hgk	Fms	> 10	> 10	selective activity to the Raf kinases	–
N#Cc1cnc2[nH]cc(C(=O)c3c(F)ccc(NS(=O)(=O)c4cc(F)ccc4F)c3F)c2c1 [Compound P-0004, N-[3-(5-cyano-1H-pyrrolo[2,3-b]pyridine-3-carbonyl)-2,4-difluoro-phenyl]-2,5-difluoro-benzenesulfonamide]	> 20	–	Fms	> 10	> 10	selective activity to the Raf kinases	Hgk
N#Cc1cnc2[nH]cc(C(=O)c3c(F)ccc(NS(=O)(=O)c4cccc(F)c4)c3F)c2c1 [Compound P-0005, N-[3-(5-cyano-1H-pyrrolo[2,3-b]pyridine-3-carbonyl)-2,4-difluoro-phenyl]-3-fluoro-benzenesulfonamide]	> 20	–	Fms	> 10	> 10	selective activity to the Raf kinases	Hgk
N#Cc1cnc2[nH]cc(C(=O)c3c(F)ccc(NS(=O)(=O)N4CCCC4)c3F)c2c1 [Compound P-0006, pyrrolidine-1-sulfonic acid [3-(5-cyano-1H-pyrrolo[2,3-b]pyridine-3-carbonyl)-2,4-difluoro-phenyl]-amide]	–	Hgk	Fms	> 10	> 10	selective activity to the Raf kinases	–
CN(C)S(=O)(=O)Nc1ccc(F)c(C(=O)c2c[nH]c3ncc(C#N)cc23)c1F [Compound P-0007, N,N-dimethylamino-sulfonic acid [3-(5-cyano-1H-pyrrolo[2,3-b]pyridine-3-carbonyl)-2,4-difluoro-phenyl]-amide]	> 20	Hgk	Fms	> 10	> 10	selective activity to the Raf kinases	–
